The target of series [1] is T1, recombinant serine protease domain of HGFA (Homo sapiens, UniProt Q04756).
T1 sequence (Q04756 408-646 limits assumed): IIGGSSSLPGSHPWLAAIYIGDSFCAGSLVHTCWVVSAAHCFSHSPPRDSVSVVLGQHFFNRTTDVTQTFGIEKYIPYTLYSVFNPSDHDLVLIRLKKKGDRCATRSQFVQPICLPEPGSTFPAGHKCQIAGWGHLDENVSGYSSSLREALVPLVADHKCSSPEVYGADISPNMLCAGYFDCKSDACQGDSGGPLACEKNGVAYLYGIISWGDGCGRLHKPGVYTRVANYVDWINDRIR
Description: Fluorescent kinetic enzyme inhibition assay, HGFA. Format: biochemical.

For the next series, the target named is T2, matriptase (Homo sapiens, UniProt Q9Y5Y6).
T2 sequence (Q9Y5Y6 615-855 limits assumed): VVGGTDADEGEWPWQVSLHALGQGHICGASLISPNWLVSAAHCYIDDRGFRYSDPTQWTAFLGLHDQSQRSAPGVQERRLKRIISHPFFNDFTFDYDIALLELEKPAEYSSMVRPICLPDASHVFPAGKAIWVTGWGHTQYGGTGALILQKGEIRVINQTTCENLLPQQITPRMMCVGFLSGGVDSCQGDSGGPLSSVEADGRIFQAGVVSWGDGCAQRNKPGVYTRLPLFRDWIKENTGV
Description: Fluorescent kinetic enzyme inhibition assay, matriptase. Format: biochemical.

The target in the next series is Factor Xa (Homo sapiens, UniProt P00742). Description: Chromogenic kinetic enzyme assay, Factor Xa. Format: biochemical.
In a further series the target is thrombin (Homo sapiens, UniProt P00734). In words: Chromogenic kinetic enzyme assay, thrombin. The series is classed as biochemical.
Series [2] is described as follows: In vitro stability in mouse plasma. Format: in vitro ADME.
The nature of series [3]: In vitro stability in human plasma. The series is classed as in vitro ADME.

Numbered stars: 1 amine (or outer) side, 2 acyl side, 3 side chain; on linkers, the order of the positions; unused ones are H or OH. Bridge positions count the residues as written; N and C are the ends. Square brackets hold non-standard residues; d marks the D form. Peptide text beside a SMILES is read from it. X1 = N=C(N)NCCC[C@H](N[*:1])C(=O)c1nc2ccc(C(=O)[*:2])cc2s1

Sequence of Factor Xa (P00742 235-488 limits assumed): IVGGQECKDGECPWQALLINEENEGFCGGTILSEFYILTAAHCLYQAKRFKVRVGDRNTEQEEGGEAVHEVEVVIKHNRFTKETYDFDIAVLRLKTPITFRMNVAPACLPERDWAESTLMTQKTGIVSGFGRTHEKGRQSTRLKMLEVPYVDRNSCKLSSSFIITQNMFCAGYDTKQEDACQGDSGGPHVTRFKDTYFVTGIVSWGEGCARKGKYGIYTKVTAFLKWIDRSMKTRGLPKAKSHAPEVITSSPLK
Sequence of Factor Xa (P00742 41-179 partner limits assumed): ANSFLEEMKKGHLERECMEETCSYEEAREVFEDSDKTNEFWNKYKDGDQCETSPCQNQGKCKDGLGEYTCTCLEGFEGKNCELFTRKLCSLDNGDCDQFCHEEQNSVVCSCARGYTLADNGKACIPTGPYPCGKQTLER

Turning to `CC(=O)N[C@H]1CC(=O)NCCCC[C@@H](C(=O)N[C@@H](CCCNC(=N)N)C(=O)c2nc3ccc(C(=O)N[C@H](C(N)=O)C(C)C)cc3s2)NC(=O)[C@H](CC(C)C)NC1=O` [Compound 20, Ac-cyclo(DLK)-R- ketobenzothiazole-V-amide] (Ac-DLK[X1]V-NH2; lactam 1-3), the IC50 (as a rule, the concentration that gives 50% inhibition) in series [1] was found to be 5380 nM; at matriptase, 11 nM; against Factor Xa, 118 nM; at thrombin it was 34 nM. Besides, the half-life in series [2] and in series [3] was greater than 4.82 h in each case.
